From US9024021B2, “Diarylacetylene hydrazide containing tyrosine kinase inhibitors” (Sun Pharma Advanced Research Company Ltd., priority 2011, dated 2015) come the findings set out here.

The test system of experiment [1] is K562 cells. As to the kind of experiment: In-vitro cell proliferation assay (MTT), K562 cells. It counts as cell-based. To be noted: for inhibition at 0.01 µM / inhibition at 0.1 µM: Homo sapiens. Here is the method: In-Vitro Cell Proliferation Assay
K562/U937 cells (2×10^4 per well) were incubated with the test compounds/vehicle in a total volume of 200 μL of media at 37° C. with 5% CO2. […] The cells were incubated overnight at 37° C. with 5% CO2. On Day 5 the optical density was measured at 570 nm with 630 nm as reference wavelength. The optical density in the vehicle treated wells was compared with that of the test compound treated wells.

Experiment [2] has as its target T1, Abl (T315I) (human) (Homo sapiens, UniProt P00519, T315I).
T1 construct: purchased Millipore Pharma Services (contract assay, UK pharmacology laboratory)
Briefly: Abl-T315I kinase inhibition (in vitro). It counts as biochemical. Here is the method:
The kinase assays were performed by Millipore Pharma Services at their UK pharmacology laboratory.
[specific activity approx. 500 cpm/pmol, concentration as required). The reaction is initiated by the addition of the MgATP mix. After incubation for 40 minutes at room temperature, the reaction is stopped by the addition of 5 μL of a 3% phosphoric acid solution. 10 μL of the reaction is then spotted onto a P30 filtermat and washed three times for 5 minutes in 75 mM phosphoric acid and once in methanol prior to drying and scintillation counting.
Within each kinase assay, percent of control values were calculated for each test compound raw data point based on mean minimum (0%) and maximum (100%) controls (n=4 per control) for that kinase (sample−mean minimum/mean maximum−mean minimum×100%). Percent inhibition was calculated from these values (100−mean percent of control).

With `Cc1ccc(C(=O)NNC(=O)c2c(C)cccc2Cl)cc1C#Cc1cnc2ccccc2n1` [I.27, N′-(2-Chloro-6-methylbenzoyl)-4-methyl-3-[2-(quinoxalin-2-yl)ethynyl]benzohydrazide], in experiment [1] (10 nM), the inhibition at 0.01 µM is 79.3%. The inhibition at 0.1 µM in experiment [1] (100 nM) was 75.3%. The inhibition at 0.003 µM in experiment [2] (3 nM) came to 0%. For the same compound, the inhibition at 0.03 µM in experiment [2] (30 nM) turned out to be 55%.
On to `Cc1ccc(C(=O)NNC(=O)c2c(Cl)cc(Cl)cc2Cl)cc1C#Cc1cnc2cnccn12` [I.15, 2,4,6-Trichloro-N′-[3-[2-(2-imidazo[1,2-a]pyrazin-3-yl)ethynyl]-4-methylbenzoyl]benzohydrazide], for which the “% Inhibition of cell proliferation in K562 cells” value (shortened to “% Inhibition … in K562 cells”) in experiment [1] (10 nM) amounted to 82.8%; in experiment [1] (100 nM) it was 85.0%.
As for `Cc1ccc(C(=O)NNC(=O)c2c(C)cccc2C)cc1C#Cc1cnc2ccccc2c1` [I.46, N′-(2,6-Dimethylbenzoyl)-4-methyl-3-[2-(3-quinolyl)ethynyl]benzohydrazide], in experiment [1] (10 nM), the inhibition at 0.01 µM worked out at 77.9%. Also, in experiment [1] (100 nM), the inhibition at 0.1 µM worked out at 83.9%.
For `Cc1ccc(C(=O)NNC(=O)c2ccccc2C)cc1C#Cc1cnc2ccccc2c1` [I.30, N′-(2-Methylbenzoyl)-4-methyl-3-[2-(3-quinolyl)ethynyl]benzohydrazide], in that order: 49% and 85%.
For `Cc1ccc(C(=O)NNC(=O)c2c(Cl)cccc2C(C)C)cc1C#Cc1cnc2ccccc2c1` [I.32, N′-(2-Chloro-6-isopropylbenzoyl)-4-methyl-3-[2-(3-quinolyl)ethynyl]benzohydrazide], in that order: 50.6% and 81.9%.
For `Cc1ccc(C(=O)NNC(=O)c2c(C)cccc2[N+](=O)[O-])cc1C#Cc1cnc2ccccc2c1` [I.36, N′-(2-Methyl-6-nitrobenzoyl)-4-methyl-3-[2-(3-quinolyl)ethynyl]benzohydrazide], in that order: 75.9% and 77.3%.
Take `Cc1ccc(C(=O)NNCc2cccnc2Cl)cc1C#Cc1cnc2ccccc2c1` [I.29, N′-(2-Chloronicotinyl)-4-methyl-3-[2-(3-quinolyl)ethynyl]benzohydrazide]: in experiment [1] (10 nM), the inhibition at 0.01 µM was 27.7%. For the same compound, the inhibition at 0.1 µM in experiment [1] (100 nM) was 78.5%.
For `Cc1ccc(C(=O)NNC(=O)c2c(C)cccc2Cl)cc1C#Cc1cnc2ccc(Cl)cc2n1` [I.26, N′-(2-Chloro-6-methylbenzoyl)-3-[2-(7-chloroquinoxalin-2-yl)ethynyl]-4-methylbenzohydrazide], the inhibition at 0.01 µM in experiment [1] (10 nM) stood at 71.8%. Also, the inhibition at 0.1 µM in experiment [1] (100 nM) amounted to 78.2%. In addition, the inhibition at 0.003 µM in experiment [2] (3 nM) worked out at 3%. The inhibition at 0.03 µM in experiment [2] (30 nM) came out at 41%.
In the case of `COc1cccc(C)c1C(=O)NNC(=O)c1ccc(C)c(C#Cc2cnc3ccccc3c2)c1` [I.13, N′-(2-Methoxy-6-methylbenzoyl)-4-methyl-3-[2-(3-quinolyl)ethynyl]benzohydrazide], in experiment [1] (10 nM), the inhibition at 0.01 µM is 52.2%. The inhibition at 0.1 µM in experiment [1] (100 nM) was found to be 73.5%.
For `Cc1cn(-c2cc(C(=O)NNC(=O)c3ccc(C)c(C#Cc4cnc5ccccc5c4)c3)cc(C(F)(F)F)c2)cn1` [I.7, 4-Methyl-N′-[3-(4-methylimidazol-1-yl)-5-(trifluoromethyl)benzoyl]-3-[2-(3-quinolyl)ethynyl]benzohydrazide], in that order: 12.6% and 43.1%.
For `Cc1ccc(C(=O)NNC(=O)c2c(F)cccc2I)cc1C#Cc1cnc2ccccc2c1` [I.23, N′-(2-Fluoro-6-iodobenzoyl)-4-methyl-3-[2-(3-quinolyl)ethynyl]benzohydrazide], in that order: 68.1% and 72.6%.
As for `Cc1ccc(C(=O)NNC(=O)c2c(Cl)cccc2Cl)cc1C#Cc1cnc2cccnn12` [I.41, N′-(2,6-Dichlorobenzoyl)-4-methyl-3-[(imidazo(1,2-b)pyridazin-3-yl)ethynyl]benzohydrazide], the inhibition at 0.01 µM in experiment [1] (10 nM) is 82.5%. Also, the inhibition at 0.1 µM in experiment [1] (100 nM) was 81.1%.
For `Cc1cccc(Cl)c1C(=O)NNC(=O)c1cccc(C#Cc2cnc3ccccc3c2)n1` [I.60, N′-(2-Chloro-6-methylbenzoyl)-6-[2-(3-quinolyl)ethynyl]pyridine-2-carboxylic acid hydrazide], in that order: 8.6% and 8.5%.
For `Cc1ccc(C(=O)NNC(=O)c2c(Cl)cc(Cl)cc2Cl)cc1C#Cc1cnc2ccccc2c1` [I.1, 2,4,6-Trichloro-N′-[4-methyl-3-[2-(3-quinolyl)ethynyl]benzoyl]benzohydrazide], in that order: 101% and 105%.
As to `Cc1ccc(C(=O)NNC(=O)c2c(Cl)cccc2Cl)cc1C#Cc1cnc2ccccc2c1` [I.5, N′-(2,6-Dichlorobenzoyl)-4-methy1-3-[2-(3-quinolyl)ethynyl]benzohydrazide], the “% Inhibition … in K562 cells” value is on record as 99.8% in experiment [1] (10 nM) and 99.9% in experiment [1] (100 nM). Further, the “% Inhibition of Abl-T315I kinase” value in experiment [2] (3 nM) is 30.0%; in experiment [2] (30 nM) it was 83.0%.
For the compound `Cc1ccc(C(=O)NNC(=O)c2ccccc2Cl)cc1C#Cc1cnc2ccccc2c1` [I.40, N′-(2-Chlorobenzoyl)-4-methyl-3-[2-(3-quinolyl)ethynyl]benzohydrazide], the inhibition at 0.01 µM in experiment [1] (10 nM) came to 59.9%. Besides, the inhibition at 0.1 µM in experiment [1] (100 nM) was determined as 84.3%.
For `Cc1ccc(C(=O)NNC(=O)c2c(Cl)cccc2C(F)(F)F)cc1C#Cc1cnc2ccccc2c1` [I.24, N′-[2-Chloro-6-(trifluoromethyl)benzoyl]-4-methyl-3-[2-(3-quinolyl)ethynyl]benzohydrazide], in that order: 71.1% and 71.3%.
For `Cc1ccc(C(=O)N(C)NC(=O)c2c(C)cccc2Cl)cc1C#Cc1cnc2ccccc2c1` [I.45, N-Methyl-N′-(2-Chloro-6-methylbenzoyl)-4-methyl-3-[2-(3-quinolyl)ethynyl]benzohydrazide], in that order: 10.2% and 78.2%.
For `Cc1ccc(C(=O)NNC(=O)c2ccc(CN3CCN(C)CC3)c(C(F)(F)F)c2)cc1C#Cc1cnc2ccccc2c1` [I.3, 4-Methyl-N′-[4-[(4-methylpiperazin-1-yl)methyl]-3-(trifluoromethyl)benzoyl]-3-[2-(3-quinolyl)ethynyl]benzohydrazide], in that order: 14.6% and 73.4%.
Turning to `Cc1ccc(C(=O)NNC(=O)c2c(C)cccc2Br)cc1C#Cc1cnc2ccccc2c1` [I.11, N′-(2-Bromo-6-methylbenzoyl)-4-methyl-3-[2-(3-quinolyl)ethynyl]benzohydrazide], in experiment [1] (10 nM), the inhibition at 0.01 µM was determined as 78.9%. In experiment [1] (100 nM), the inhibition at 0.1 µM was 79.9%.
For `Cc1ccc(C(=O)NNC(=O)c2c(C)cccc2Cl)cc1C#Cc1cnc2ccccn12` [I.19, N′-(2-Chloro-6-methylbenzoyl)-3-[2-(imidazo[1,2-a]pyridin-3-yl)ethynyl]-4-methylbenzohydrazide], in that order: 60.2% and 80.2%.
For `Cc1cc(C)c(C(=O)NNC(=O)c2ccc(C)c(C#Cc3cnc4ccccc4c3)c2)c(C)c1` [I.8, 2,4,6-Trimethyl-N′-[4-methyl-3-[2-(3-quinolyl)ethynyl]benzoyl]benzohydrazide], in that order: 53.6% and 80.3%.
Regarding `Cc1ccc(C(=O)NNC(=O)c2c(C)cccc2Cl)cc1C#Cc1cnc2ccc(Cl)cc2c1` [I.50, N′-(2-Chloro-6-methylbenzoyl)-4-methyl-3-[2-(6-chloro-3-quinolyl)ethynyl]benzohydrazide], the inhibition at 0.01 µM in experiment [1] (10 nM) turned out to be 69.6%. Further, the inhibition at 0.1 µM in experiment [1] (100 nM) stood at 75%.
For `CCc1cccc(Cl)c1C(=O)NNC(=O)c1ccc(C)c(C#Cc2cnc3ccccc3c2)c1` [I.31, N′-(2-Chloro-6-ethylbenzoyl)-4-methyl-3-[2-(3-quinolyl)ethynyl]benzohydrazide], in that order: 74.2% and 81.4%.
For `Cc1ccc2ncc(C#Cc3cc(C(=O)NNC(=O)c4c(C)cccc4Cl)ccc3C)cc2c1` [I.44, N′-(2-Chloro-6-methylbenzoyl)-4-methyl-3-[2-(6-methyl-3-quinolyl)ethynyl]benzohydrazide], in that order: 77.7% and 84.4%.
`Cc1ccc(C(=O)NNC(=O)c2c(Cl)cccc2I)cc1C#Cc1cnc2ccccc2c1` [I.39, N′-(2-Chloro-6-iodobenzoyl)-4-methyl-3-[2-(3-quinolyl)ethynyl]benzohydrazide]: the inhibition at 0.01 µM in experiment [1] (10 nM) turned out to be 77.1%. Besides, the inhibition at 0.1 µM in experiment [1] (100 nM) was determined as 80.5%.
For `COc1cccc(Cl)c1C(=O)NNC(=O)c1ccc(C)c(C#Cc2cnc3ccccc3c2)c1` [I.34, N′-(2-Chloro-6-methoxybenzoyl)-4-methyl-3-[2-(3-quinolyl)ethynyl]benzohydrazide], in that order: 75.5% and 82.2%.
Turning to `Cc1cccc(Cl)c1C(=O)NNC(=O)c1ccc(F)c(C#Cc2cnc3ccccc3c2)c1` [I.21, N′-(2-Cchloro-6-methylbenzoyl)-4-fluoro-3-[2-(3-quinolyl)ethynyl]benzohydrazide], the “% Inhibition … in K562 cells” value is 40.9% in experiment [1] (10 nM) and 98.6% in experiment [1] (100 nM).
